Where two headings read alike, the source gives them in different places.
Key:
c-Abl = target: T1, c-Abl (Homo sapiens, UniProt P00519); assay: Abl filter-binding kinase assay (Abtide, [γ-32P]ATP); format: biochemical; settings: isolated Abl; calculated from ID50, ATP-competitive; E0 0.005, S0 0.012 µM
T1 construct: His tag; purchased Upstate (Lake Placid, NY, USA)
Method: (§1) Baculovirus-produced recombinant purified his-tagged active against human Src and Abl were purchased from Upstate (Lake Placid, NY, USA).
(§2) Src activity was measured in a filter-binding assay using the Src Assay Kit (Upstate, Lake Placid, NY, USA), according to the manufacturer's protocol, using the specific Src peptide substrate [[…]] in the presence of 0.125 pmol of Src and 0.160 pmol of [γ-^32P]ATP. Abl activity was measured in a filter-binding assay using an Abl specific peptide substrate (Abtide, Upstate). Reaction conditions were (in a final volume of 10 µl): 25 mM Tris-HCl pH 7.5, 1 mM DTT, 0.012 µM [γ-^32P]ATP, 0.022 µM c-Abl. Reactions were incubated 10 min at 30°C.The samples (9 µl) were spotted on paper cellulose filters which were washed according to the manufacturer's protocol. Filter-bound radioactivity was measured by liquid scintillation with a Microbeta-Trilux apparatus (PerkinElmer, Waltham, MA, USA).
(§3) The ID50 were converted to Ki according to a competitive mechanism with respect to the substrate ATP. […] Since (i) the ATP concentration was limiting, i.e., [ATP], Km(ATP), and (ii) the enzyme concentration was not negligible with respect to the ATP concentration, the classical Cheng-Prusoff relationship was not applicable. Consequently, Ki values were calculated according to [drawing 3] (2) where S0 is the concentration of the competing substrate (ATP) and E0 is the concentration of the enzyme. Each experiment was done in triplicate and mean values were used for the interpolation. Curve fitting was performed with the program GraphPad Prism.

CaCo2 [1] = assay: MTS cell viability assay; format: cell-based, human
Method: (§4) Three human and eleven murine cancer cell lines were used. The human NSCLC cell line A549 (ACC 107) and the human colorectal carcinoma cell line CaCo2 (ACC 169) were obtained from Deutsche Sammlung von Mikroorganismen und Zellkulturen (DSMZ, Braunschweig, Germany). The human hepatocellular carcinoma cell line HepG2 (HB-8065) was obtained from American Type Culture Collection (Manassas, VA, USA). The 11 murine NSCLC cell lines were established as described recently. Cells were grown in monolayer cultures in DMEM containing 10% foetal calf serum, 4 mmol/l L-glutamine and 2% Penicillin/Streptomycin at 37°C in a humidified atmosphere of 95% air and 5% CO2.
(§5) Cell culture viability was monitored by CellTiter96® AQueous One Solution Cell Proliferation Assay (Promega GmbH, Mannheim, Germany). The cells were seeded in triplicates in 96-well microtitre plates and treated with the dual kinase inhibitors or vehicle (0.2% DMSO). After 24 h or 96 h of treatment the MTS tetrazolium reagent was added to the cells and incubated for 1 h. Absorbance at 490 nm was assayed with a Victor3 Wallac 1420 Multilabel counter (PerkinElmer, Waltham, MA, USA).

A549 [2] = assay: MTS cell viability assay; format: cell-based, human
Method: as §4, §5

HepG2 [3] = assay: MTS cell viability assay; format: cell-based, human
Method: as §4, §5

c-Src = target: T2, c-Src (Homo sapiens, UniProt P12931); assay: Src filter-binding kinase assay (Src Assay Kit); format: biochemical; settings: isolated Src; calculated from ID50, ATP-competitive; E0 0.005, S0 0.012 µM
T2 construct: His tag; purchased Upstate (Lake Placid, NY, USA)
T2 sequence (P12931 whole entry): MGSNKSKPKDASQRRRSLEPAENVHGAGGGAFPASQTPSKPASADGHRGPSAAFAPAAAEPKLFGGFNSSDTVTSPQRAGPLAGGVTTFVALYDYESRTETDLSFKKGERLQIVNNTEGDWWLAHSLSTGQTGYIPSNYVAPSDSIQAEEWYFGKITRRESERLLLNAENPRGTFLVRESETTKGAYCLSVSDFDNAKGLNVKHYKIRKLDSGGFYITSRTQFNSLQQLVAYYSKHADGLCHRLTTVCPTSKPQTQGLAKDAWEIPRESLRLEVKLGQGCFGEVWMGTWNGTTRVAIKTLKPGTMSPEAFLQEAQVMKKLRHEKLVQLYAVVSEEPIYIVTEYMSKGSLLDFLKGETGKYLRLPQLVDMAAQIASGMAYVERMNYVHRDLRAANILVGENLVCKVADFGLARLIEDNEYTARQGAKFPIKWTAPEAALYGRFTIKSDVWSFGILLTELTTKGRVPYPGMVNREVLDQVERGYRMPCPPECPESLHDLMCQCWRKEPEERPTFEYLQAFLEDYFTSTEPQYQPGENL
Method: as §1, §2, §3

GammaD12 [4] = assay: Cell cycle analysis by flow cytometry; format: cell-based, mouse; settings: IC50 concentration, 96 h
Method: (§6) CycleTEST™ PLUS DNA Reagent Kit (Becton Dickinson GmbH, Heidelberg, Germany) for cell cycle analysis was used, according to the instructions of the manufacturer. Briefly, the cells were harvested with trypsin, washed with PBS, and resuspended in CycleTEST Buffer. The cells were centrifuged and resuspended in solution A. After incubation for 10 min at room temperature, solution B was added and incubated. After adding solution C, the samples were incubated at 4°C protected from light. The samples were stored on ice and protected from light until analysis by FACScan flow cytometer (Becton Dickinson GmbH, Heidelberg, Germany).

A2C12 [5] = assay: Cell cycle analysis by flow cytometry; format: cell-based, mouse; settings: IC50 concentration, 96 h
Method: as §6

GammaA3 [6] = assay: Cell cycle analysis by flow cytometry; format: cell-based, mouse; settings: IC50 concentration, 96 h
Method: as §6

BetaD5 [7] = assay: Cell cycle analysis by flow cytometry; format: cell-based, mouse; settings: IC50 concentration, 96 h
Method: as §6

CaCo2 [8] = assay: Cell cycle analysis by flow cytometry; format: cell-based, human; settings: IC50 concentration, 96 h
Method: as §6

A549 [9] = assay: Cell cycle analysis by flow cytometry; format: cell-based, human; settings: IC50 concentration, 96 h
Method: as §6

HepG2 [10] = assay: Cell cycle analysis by flow cytometry; format: cell-based, human; settings: IC50 concentration, 96 h
Method: as §6

GammaD12 [11] = assay: MTS cell viability assay; format: cell-based, mouse; settings: MTS
Method: as §4, §5

A2C12 [12] = assay: MTS cell viability assay; format: cell-based, mouse
Method: as §4, §5

GammaA3 [13] = assay: MTS cell viability assay; format: cell-based, mouse
Method: as §4, §5

BetaD5 [14] = assay: MTS cell viability assay; format: cell-based, mouse
Method: as §4, §5

[15] = Homo sapiens, Caco-2, 24 h, read-out: Calculated IC50 after single treatment for 24 h
[16] = Homo sapiens, Caco-2, 96 h, read-out: Calculated IC50 after daily treatment for 96 h
[17] = Homo sapiens, A549, 24 h, 24 h, read-out: Calculated IC50 after single treatment for 24 h
[18] = Homo sapiens, A549, 96 h, 96 h, read-out: Calculated IC50 after daily treatment for 96 h
[19] = Homo sapiens, 24 h, read-out: Calculated IC50 after single treatment for 24 h
[20] = Homo sapiens, 96 h, read-out: Calculated IC50 after daily treatment for 96 h
[21] = Mus musculus, 24 h, read-out: Calculated IC50 after single treatment for 24 h
[22] = Mus musculus, 96 h, read-out: Calculated IC50 after daily treatment for 96 h
[23] = 24 h, read-out: Calculated IC50 after single treatment for 24 h
[24] = 96 h, read-out: Calculated IC50 after daily treatment for 96 h

T1 sequence (P00519 whole entry): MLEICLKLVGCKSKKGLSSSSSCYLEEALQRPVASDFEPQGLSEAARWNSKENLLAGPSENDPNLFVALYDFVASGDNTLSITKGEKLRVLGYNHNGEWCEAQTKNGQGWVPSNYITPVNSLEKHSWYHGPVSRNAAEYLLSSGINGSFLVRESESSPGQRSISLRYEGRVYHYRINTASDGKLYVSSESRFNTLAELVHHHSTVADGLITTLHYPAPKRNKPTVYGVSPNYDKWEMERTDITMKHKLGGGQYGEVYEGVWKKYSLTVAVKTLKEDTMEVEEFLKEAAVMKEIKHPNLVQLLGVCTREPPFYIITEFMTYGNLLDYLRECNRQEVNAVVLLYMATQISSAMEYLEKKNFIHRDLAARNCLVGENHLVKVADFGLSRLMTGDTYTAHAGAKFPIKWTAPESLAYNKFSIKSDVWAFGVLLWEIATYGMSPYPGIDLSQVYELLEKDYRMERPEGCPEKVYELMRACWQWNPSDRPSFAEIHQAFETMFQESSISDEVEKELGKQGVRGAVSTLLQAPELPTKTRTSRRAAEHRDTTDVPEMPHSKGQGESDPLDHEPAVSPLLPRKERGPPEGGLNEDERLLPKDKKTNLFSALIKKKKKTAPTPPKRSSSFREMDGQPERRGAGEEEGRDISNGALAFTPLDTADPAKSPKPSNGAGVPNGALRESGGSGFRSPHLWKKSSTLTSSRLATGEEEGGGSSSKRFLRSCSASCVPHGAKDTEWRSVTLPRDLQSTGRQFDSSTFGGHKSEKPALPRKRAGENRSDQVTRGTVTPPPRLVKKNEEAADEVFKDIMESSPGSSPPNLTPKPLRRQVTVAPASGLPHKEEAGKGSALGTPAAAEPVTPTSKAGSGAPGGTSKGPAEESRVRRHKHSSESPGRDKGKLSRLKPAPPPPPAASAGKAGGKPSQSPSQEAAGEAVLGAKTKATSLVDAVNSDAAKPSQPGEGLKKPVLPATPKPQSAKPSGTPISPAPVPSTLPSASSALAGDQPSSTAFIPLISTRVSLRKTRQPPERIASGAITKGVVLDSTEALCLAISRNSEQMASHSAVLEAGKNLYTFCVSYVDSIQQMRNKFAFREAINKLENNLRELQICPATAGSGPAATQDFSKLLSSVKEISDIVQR

SMILES | Cells in G1 phase (GammaD12 [4]) [%] | Cells in G2 phase (GammaD12 [4]) [%] | Cells in S phase (GammaD12 [4]) [%] | Cells in G1 phase (A2C12 [5]) [%] | Cells in G2 phase (A2C12 [5]) [%] | Cells in S phase (A2C12 [5]) [%] | Cells in G1 phase (GammaA3 [6]) [%] | Cells in G2 phase (GammaA3 [6]) [%] | Cells in S phase (GammaA3 [6]) [%] | Cells in G1 phase (BetaD5 [7]) [%] | Cells in G2 phase (BetaD5 [7]) [%] | Cells in S phase (BetaD5 [7]) [%] | Cells in G1 phase (CaCo2 [8]) [%] | Cells in G2 phase (CaCo2 [8]) [%] | Cells in S phase (CaCo2 [8]) [%] | Cells in G1 phase (A549 [9]) [%] | Cells in G2 phase (A549 [9]) [%] | Cells in S phase (A549 [9]) [%] | Cells in G1 phase (HepG2 [10]) [%] | Cells in G2 phase (HepG2 [10]) [%] | also measured
Cc1nc(Nc2cccc(Cl)c2)c2cnn(CC(Cl)c3ccccc3)c2n1 (stereo not shown) [Si167] | 42 | 9.4 | 48.6 | 55.7 | 13.1 | 31.2 | 73.2 | 15.1 | 11.7 | 74.7 | 18.7 | 6.6 | 52.7 | 18 | 29.3 | 61.5 | 6.7 | 31.8 | 57.8 | 10.6 | Ki (c-Abl): 0.5 µM; IC50 (CaCo2 [1]; [15]): 32.2 ± 1.7 µM; IC50 (CaCo2 [1]; [16]): 5.7 ± 0.6 µM; IC50 (A549 [2]; [17]): 19.8 ± 2.8 µM; IC50 (A549 [2]; [18]): 5.7 ± 0.3 µM; IC50 (HepG2 [3]; [19]): 32.2 ± 1.7 µM; IC50 (HepG2 [3]; [20]): 11.4 ± 1.7 µM; Ki (c-Src): 0.362 µM; Cells in S phase (HepG2 [10]): 31.6%; IC50 (GammaD12 [11]; [21]): 19.5 ± 0.8 µM; IC50 (GammaD12 [11]; [22]): 9 ± 0.9 µM; IC50 (A2C12 [12]; [21]): 16.4 ± 0.8 µM; IC50 (A2C12 [12]; [22]): 10.6 ± 0.9 µM; IC50 (GammaA3 [13]; [21]): 20.5 ± 1.2 µM; IC50 (GammaA3 [13]; [22]): 16.8 ± 3.2 µM; IC50 (BetaD5 [14]; [21]): 12.4 ± 1 µM; IC50 (BetaD5 [14]; [22]): 9.3 ± 0.6 µM
Cc1nc(Nc2cccc(F)c2)c2cnn(CC(Cl)c3ccccc3)c2n1 (stereo not shown) [Si166] | 39.5 | 10.2 | 50.3 | 56.1 | 13.6 | 30.4 | 74.4 | 14.1 | 11.5 | 68.3 | 20.8 | 10.9 | 56.7 | 17.8 | 25.5 | 63.2 | 6.6 | 30.2 | 54.6 | 9.6 | Ki (c-Abl): 0.151 µM; IC50 (CaCo2 [1]; [15]): 37.7 ± 2.4 µM; IC50 (CaCo2 [1]; [16]): 6 ± 0.7 µM; IC50 (A549 [2]; [17]): 20.2 ± 2.5 µM; IC50 (A549 [2]; [18]): 8.3 ± 0.3 µM; IC50 (HepG2 [3]; [19]): 37.7 ± 2.4 µM; IC50 (HepG2 [3]; [20]): 10.8 ± 0.9 µM; Ki (c-Src): 0.338 µM; Cells in S phase (HepG2 [10]): 35.8%; IC50 (GammaD12 [11]; [21]): 18.1 ± 1.4 µM; IC50 (GammaD12 [11]; [22]): 15.9 ± 1.4 µM; IC50 (A2C12 [12]; [21]): 16.6 ± 1.2 µM; IC50 (A2C12 [12]; [22]): 11.5 ± 0.5 µM; IC50 (GammaA3 [13]; [21]): 17 ± 2.3 µM; IC50 (GammaA3 [13]; [22]): 19 ± 1.3 µM; IC50 (BetaD5 [14]; [21]): 14 ± 2.1 µM; IC50 (BetaD5 [14]; [22]): 10.6 ± 0.7 µM
Fc1ccc(C(Cl)Cn2ncc3c(Nc4cccc(Cl)c4)ncnc32)cc1 (stereo not shown) [Si104] | 35.3 | 7.8 | 56.9 | 45.8 | 13.8 | 40.4 | 61.9 | 16.9 | 21.2 | 57.4 | 25.3 | 17.3 | 51 | 10.9 | 38.1 | 68.1 | 5.5 | 26.4 | 56.2 | 8.1 | IC50 (CaCo2 [1]; [23]): 40.8 ± 1.7 µM; IC50 (CaCo2 [1]; [24]): 5.8 ± 0.2 µM; IC50 (A549 [2]; [23]): 17.8 ± 2.6 µM; IC50 (A549 [2]; [24]): 6.8 ± 0.1 µM; IC50 (HepG2 [3]; [23]): 40.9 ± 1.7 µM; IC50 (HepG2 [3]; [24]): 10.3 ± 0.7 µM; Cells in S phase (HepG2 [10]): 35.6%; IC50 (GammaD12 [11]; [23]): 13.2 ± 0.9 µM; IC50 (GammaD12 [11]; [24]): 9.2 ± 0.5 µM; IC50 (A2C12 [12]; [23]): 16.2 ± 1 µM; IC50 (A2C12 [12]; [24]): 6.5 ± 0.3 µM; IC50 (GammaA3 [13]; [23]): 18.3 ± 0.7 µM; IC50 (GammaA3 [13]; [24]): 11.4 ± 0.3 µM; IC50 (BetaD5 [14]; [23]): 12.6 ± 2.6 µM; IC50 (BetaD5 [14]; [24]): 12.4 ± 1 µM

Source: PMC2994747, “Molecular Characterization of c-Abl/c-Src Kinase Inhibitors Targeted against Murine Tumour Progenitor Cells that Express Stem Cell Markers” (PLoS ONE, 2010)
